The values that follow come from US8071353B2, “Genetic remodeling in Bifidobacterium” (Nestec S.A., priority 2007, dated 2011).

≈ marks a conversion by molar mass, not a printed value.

In experiment [1] the test system is B. animalis subsp. lactis wild-type strain NCC 2818. Put plainly: E-TEST (AB BIODISK) tetracycline MIC determination, wild-type strain. Format: cell-based, Bifidobacterium animalis subsp. lactis. The conditions noted are these: Bifidobacterium animalis, strain NCC 2818 (wild-type, operable tetW). The source says:
(§1) In certain embodiments, the wild-type cell is resistant to a higher concentration of the antibiotic than the cell of the invention, i.e. the cell with the deleted gene. Sensitivity of a microbial cell to a particular antibiotic may be measured in any of a variety of manners. One convenient means for measuring antibiotic sensitivity to use disk diffusion assays, for example the E-test (commercially produced by AB BIODISK). The E-test system uses a predefined gradient of antibiotic concentrations on a plastic strip and can be used to determine the exact Minimum Inhibitory Concentration (MIC) of an antibiotic for a particular organism.
(§2) In certain embodiments, the wild-type cell is resistant to a higher concentration of the antibiotic than the cell that results from the methods provided. Disk diffusion assays and related sensitivity tests such as the E-test (AB BIODISK) are preferred ways of measuring the sensitivity of a cell to an antibiotic. The Minimum Inhibitory Concentration (MIC), however determined, of an antibiotic for a particular organism is a convenient way to compare relative sensitivities.
(§3) A commercial E-TEST (AB BIODISK) was used to determine the MIC for tetracycline of each strain.

The subject of experiment [2] is Bifidobacterium animalis subsp. lactis strain NCC 362 (wild-type). Put plainly: E-TEST tetracycline MIC determination, FIG. 3 legend wild-type strain. Format: cell-based. The conditions noted are these: FIG. 3 left panel, read-out: Resistance to tetracycline (MIC).
From the text: as §1, §3

Experiment [3] concerns B. animalis subsp. lactis strain NCC 9034 (tetW deleted). Put plainly: E-TEST (AB BIODISK) tetracycline MIC determination, tetW deletion strain. Type of experiment: cell-based, Bifidobacterium animalis subsp. lactis.
From the text: as §1, §2, §3

The term MIC denotes the lowest concentration found to suppress growth.

With `CN(C)[C@@H]1C(O)=C(C(N)=O)C(=O)[C@@]2(O)C(O)=C3C(=O)c4c(O)cccc4[C@@](C)(O)[C@H]3C[C@@H]12` [tetracycline], the MIC was 16 µg/mL (≈ 36 µM) in experiment [1]; around 16 µg/mL (≈ 36 µM) in experiment [2]; around 0.3 µg/mL (≈ 0.675 µM) in experiment [3] (Bifidobacterium animalis, read-out: MIC for tetracycline). Also, in experiment [3] (NCC 9034 versus NCC 2818, ratio of E-TEST MICs), the “times more sensitive to tetracycline than parent wild-type strain NCC 2818” value is listed as “about 50 times”.
